Laboratory results reported in ChEMBL document CHEMBL4229500, “Iodine-mediated cyclization of cannabigerol (CBG) expands the cannabinoid biological and chemical space” (Bioorg Med Chem, 2018).

Columns and labels:
Assay type in all cases: cell-based; call rule not given here
[1] = biological target: T1, Transient receptor potential cation channel subfamily V member 2 (Rattus norvegicus, UniProt Q9WUD2); experiment: Antagonist activity at rat TRPV2 expressed in HEK293 cells assessed as inhibition of LPC-induced increase in intracellular calcium level pretreated for 5 mins followed by LPC addition by Fluo-4-AM dye based fluorescence assay
T1 sequence (Q9WUD2 whole entry): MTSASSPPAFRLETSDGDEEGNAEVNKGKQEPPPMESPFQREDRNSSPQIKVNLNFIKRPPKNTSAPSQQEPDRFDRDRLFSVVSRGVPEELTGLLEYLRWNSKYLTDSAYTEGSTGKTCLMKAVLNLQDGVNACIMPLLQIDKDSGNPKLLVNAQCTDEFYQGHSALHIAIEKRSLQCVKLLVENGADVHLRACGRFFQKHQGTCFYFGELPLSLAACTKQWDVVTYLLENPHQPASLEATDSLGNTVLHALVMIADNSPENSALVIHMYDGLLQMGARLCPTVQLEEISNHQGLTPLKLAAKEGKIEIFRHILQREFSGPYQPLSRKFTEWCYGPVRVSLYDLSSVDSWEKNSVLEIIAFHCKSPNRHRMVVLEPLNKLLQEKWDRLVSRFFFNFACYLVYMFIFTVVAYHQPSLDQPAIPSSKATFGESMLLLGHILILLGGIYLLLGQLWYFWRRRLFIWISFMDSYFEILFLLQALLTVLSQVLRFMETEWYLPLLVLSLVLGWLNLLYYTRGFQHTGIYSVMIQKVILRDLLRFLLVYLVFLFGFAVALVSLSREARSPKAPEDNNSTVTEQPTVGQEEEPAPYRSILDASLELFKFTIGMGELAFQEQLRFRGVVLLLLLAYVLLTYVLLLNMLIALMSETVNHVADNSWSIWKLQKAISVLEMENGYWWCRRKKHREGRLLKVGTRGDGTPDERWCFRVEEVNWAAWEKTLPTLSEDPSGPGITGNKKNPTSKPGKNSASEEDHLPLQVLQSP

[2] = biological target: T1, Transient receptor potential cation channel subfamily V member 2; experiment: Agonist activity at rat TRPV2 expressed in HEK293 cells assessed as increase in intracellular calcium level by Fluo-4-AM dye based fluorescence assay
[3] = biological target: T2, Transient receptor potential cation channel, subfamily V, member 3 (Rattus norvegicus) (UniProt E9PU00); experiment: Agonist activity at […] expressed in HEK293 cells assessed as increase in intracellular calcium level by Fluo-4-AM dye based fluorescence assay relative to ionomycin
T2 sequence (whole entry): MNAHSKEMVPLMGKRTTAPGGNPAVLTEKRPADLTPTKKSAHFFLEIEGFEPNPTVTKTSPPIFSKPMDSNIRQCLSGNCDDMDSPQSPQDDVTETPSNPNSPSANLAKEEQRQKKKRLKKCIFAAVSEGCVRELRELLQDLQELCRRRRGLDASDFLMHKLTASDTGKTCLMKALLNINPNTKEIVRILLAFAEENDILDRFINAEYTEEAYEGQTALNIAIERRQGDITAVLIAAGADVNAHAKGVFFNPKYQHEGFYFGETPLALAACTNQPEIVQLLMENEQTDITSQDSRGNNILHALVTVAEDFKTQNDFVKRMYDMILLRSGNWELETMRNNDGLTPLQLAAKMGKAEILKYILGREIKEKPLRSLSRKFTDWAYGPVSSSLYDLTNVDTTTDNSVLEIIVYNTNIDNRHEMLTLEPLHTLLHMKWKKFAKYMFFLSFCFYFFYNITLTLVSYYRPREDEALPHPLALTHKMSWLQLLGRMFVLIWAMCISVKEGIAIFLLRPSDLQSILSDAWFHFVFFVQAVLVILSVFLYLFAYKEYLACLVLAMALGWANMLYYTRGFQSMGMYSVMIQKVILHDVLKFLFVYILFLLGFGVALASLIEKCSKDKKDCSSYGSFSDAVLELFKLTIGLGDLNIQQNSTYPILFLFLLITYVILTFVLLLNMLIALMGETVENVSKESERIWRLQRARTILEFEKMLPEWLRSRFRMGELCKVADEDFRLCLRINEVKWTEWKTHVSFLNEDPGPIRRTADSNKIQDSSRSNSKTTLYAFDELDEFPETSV

[4] = biological target: T3, Transient receptor potential cation channel subfamily V member 2 (Rattus norvegicus) (UniProt Q9WUD2); experiment: Agonist activity at rat TRPV2 expressed in HEK293 cells assessed as increase in intracellular calcium level by Fluo-4-AM dye based fluorescence assay relative to ionomycin
T3 sequence (whole entry): T1 sequence (Q9WUD2 whole entry)

[5] = biological target: T4, Transient receptor potential cation channel, subfamily V, member 3 (Rattus norvegicus, UniProt E9PU00); experiment: Agonist activity at […] expressed in HEK293 cells assessed as increase in intracellular calcium level by Fluo-4-AM dye based fluorescence assay
T4 sequence (E9PU00 whole entry): T2 sequence (whole entry)

[6] = biological target: T5, Transient receptor potential cation channel subfamily V member 4 (Rattus norvegicus, UniProt Q9ERZ8); experiment: Antagonist activity at […] expressed in HEK293 cells assessed as inhibition of GSK1016790A-induced increase in intracellular calcium level pretreated for 5 mins followed by GSK1016790A addition by Fluo-4-AM dye based fluorescence assay
T5 sequence (Q9ERZ8 whole entry): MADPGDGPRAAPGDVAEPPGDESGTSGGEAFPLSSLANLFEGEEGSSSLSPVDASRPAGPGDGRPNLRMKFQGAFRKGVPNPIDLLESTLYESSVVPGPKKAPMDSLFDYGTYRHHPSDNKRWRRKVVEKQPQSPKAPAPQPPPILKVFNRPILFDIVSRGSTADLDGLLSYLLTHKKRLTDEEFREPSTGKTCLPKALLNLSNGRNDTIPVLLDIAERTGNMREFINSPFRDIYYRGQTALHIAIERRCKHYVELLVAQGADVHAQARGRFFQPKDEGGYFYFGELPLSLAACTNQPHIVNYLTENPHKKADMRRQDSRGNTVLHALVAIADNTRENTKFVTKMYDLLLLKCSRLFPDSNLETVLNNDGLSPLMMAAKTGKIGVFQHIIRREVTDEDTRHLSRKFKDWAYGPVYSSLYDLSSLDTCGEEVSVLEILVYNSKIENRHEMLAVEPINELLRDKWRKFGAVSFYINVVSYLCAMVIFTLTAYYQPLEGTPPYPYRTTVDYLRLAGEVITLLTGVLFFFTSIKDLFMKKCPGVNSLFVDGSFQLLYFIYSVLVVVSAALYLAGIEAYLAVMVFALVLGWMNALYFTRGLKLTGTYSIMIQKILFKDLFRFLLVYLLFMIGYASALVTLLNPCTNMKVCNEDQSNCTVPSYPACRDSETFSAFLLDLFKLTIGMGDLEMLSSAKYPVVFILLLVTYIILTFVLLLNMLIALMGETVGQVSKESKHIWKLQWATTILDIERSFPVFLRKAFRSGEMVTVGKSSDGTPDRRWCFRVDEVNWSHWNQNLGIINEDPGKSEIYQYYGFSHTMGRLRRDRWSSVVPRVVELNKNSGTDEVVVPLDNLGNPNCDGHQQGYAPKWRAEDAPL

[7] = biological target: T4, Transient receptor potential cation channel, subfamily V, member 3; experiment: Antagonist activity at […] expressed in HEK293 cells assessed as inhibition of thymol-induced increase in intracellular calcium level pretreated for 5 mins followed by thymol addition by Fluo-4-AM dye based fluorescence assay
[8] = biological target: Transient receptor potential cation channel subfamily A member 1 (Rattus norvegicus) (UniProt Q6RI86); experiment: Agonist activity at rat TRPA1 expressed in HEK293 cells assessed as increase in intracellular calcium level by fluo-4-AM dye based fluorescence assay relative to AITC
Chain of Transient receptor potential cation channel subfamily A member 1 (Rattus norvegicus) (Q6RI86 whole entry): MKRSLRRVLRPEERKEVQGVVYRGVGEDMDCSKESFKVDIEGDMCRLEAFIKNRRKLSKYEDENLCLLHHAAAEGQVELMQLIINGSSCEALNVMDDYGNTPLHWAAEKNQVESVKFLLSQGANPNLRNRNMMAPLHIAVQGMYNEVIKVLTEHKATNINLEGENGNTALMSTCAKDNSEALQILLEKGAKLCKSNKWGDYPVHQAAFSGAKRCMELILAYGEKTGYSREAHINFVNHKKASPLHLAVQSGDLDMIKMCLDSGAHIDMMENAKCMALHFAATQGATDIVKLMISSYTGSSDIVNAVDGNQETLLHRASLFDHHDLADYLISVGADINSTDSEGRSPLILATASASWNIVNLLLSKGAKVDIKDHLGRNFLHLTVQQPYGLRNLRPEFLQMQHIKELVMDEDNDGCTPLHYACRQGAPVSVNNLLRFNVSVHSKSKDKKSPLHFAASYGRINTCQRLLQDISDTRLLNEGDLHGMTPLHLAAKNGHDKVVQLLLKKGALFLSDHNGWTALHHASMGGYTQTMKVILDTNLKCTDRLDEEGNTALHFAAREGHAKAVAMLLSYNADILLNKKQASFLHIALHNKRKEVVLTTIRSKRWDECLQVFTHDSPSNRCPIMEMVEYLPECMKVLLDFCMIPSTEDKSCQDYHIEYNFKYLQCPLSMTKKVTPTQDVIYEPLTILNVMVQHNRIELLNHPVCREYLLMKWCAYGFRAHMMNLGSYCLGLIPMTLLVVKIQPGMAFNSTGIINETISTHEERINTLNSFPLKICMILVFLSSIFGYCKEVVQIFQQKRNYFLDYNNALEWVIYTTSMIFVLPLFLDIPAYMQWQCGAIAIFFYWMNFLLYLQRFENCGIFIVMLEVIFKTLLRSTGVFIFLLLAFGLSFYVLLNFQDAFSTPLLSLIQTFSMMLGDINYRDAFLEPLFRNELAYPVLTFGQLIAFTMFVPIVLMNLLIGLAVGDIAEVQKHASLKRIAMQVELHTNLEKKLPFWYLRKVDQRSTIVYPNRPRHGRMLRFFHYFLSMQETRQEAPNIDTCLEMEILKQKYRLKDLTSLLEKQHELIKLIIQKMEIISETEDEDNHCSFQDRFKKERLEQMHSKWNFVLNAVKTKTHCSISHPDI

[9] = biological target: Transient receptor potential cation channel subfamily M member 8 (Rattus norvegicus, UniProt Q8R455); experiment: Antagonist activity at rat TRPM8 expressed in HEK293 cells assessed as inhibition of icilin-induced increase in intracellular calcium level pretreated for 5 mins followed by icilin addition by Fluo-4-AM dye based fluorescence assay
Chain of Transient receptor potential cation channel subfamily M member 8 (Q8R455 whole entry): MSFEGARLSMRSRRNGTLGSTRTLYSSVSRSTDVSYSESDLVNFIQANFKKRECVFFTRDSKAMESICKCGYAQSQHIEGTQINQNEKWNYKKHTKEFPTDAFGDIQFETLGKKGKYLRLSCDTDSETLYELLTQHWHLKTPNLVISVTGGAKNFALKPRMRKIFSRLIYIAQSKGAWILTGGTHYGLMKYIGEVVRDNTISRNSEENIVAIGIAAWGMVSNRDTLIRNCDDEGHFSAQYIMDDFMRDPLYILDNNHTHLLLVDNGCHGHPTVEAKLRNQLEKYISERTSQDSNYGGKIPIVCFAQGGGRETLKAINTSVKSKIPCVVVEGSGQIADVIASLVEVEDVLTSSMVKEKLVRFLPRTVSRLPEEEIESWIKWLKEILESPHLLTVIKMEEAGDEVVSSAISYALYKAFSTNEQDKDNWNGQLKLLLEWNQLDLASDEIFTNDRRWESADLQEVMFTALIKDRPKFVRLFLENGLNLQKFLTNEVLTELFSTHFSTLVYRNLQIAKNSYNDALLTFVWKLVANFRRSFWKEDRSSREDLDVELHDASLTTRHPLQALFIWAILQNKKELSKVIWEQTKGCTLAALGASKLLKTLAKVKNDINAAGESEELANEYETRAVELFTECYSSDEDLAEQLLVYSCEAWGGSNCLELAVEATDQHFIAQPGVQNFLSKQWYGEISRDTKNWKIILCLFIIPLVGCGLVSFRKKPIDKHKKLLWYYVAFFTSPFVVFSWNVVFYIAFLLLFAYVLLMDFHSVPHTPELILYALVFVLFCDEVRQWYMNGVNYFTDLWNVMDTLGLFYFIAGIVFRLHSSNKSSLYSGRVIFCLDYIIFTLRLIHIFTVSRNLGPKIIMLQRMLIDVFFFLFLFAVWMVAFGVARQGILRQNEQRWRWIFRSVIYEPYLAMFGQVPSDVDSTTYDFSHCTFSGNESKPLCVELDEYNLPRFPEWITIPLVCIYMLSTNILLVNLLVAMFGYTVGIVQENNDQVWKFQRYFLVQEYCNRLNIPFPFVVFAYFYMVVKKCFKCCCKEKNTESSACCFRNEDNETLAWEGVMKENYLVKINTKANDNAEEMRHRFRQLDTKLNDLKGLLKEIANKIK

[10] = biological target: T6, Transient receptor potential cation channel subfamily V member 1 (Homo sapiens, UniProt Q8NER1); experiment: Agonist activity at human TRPV1 expressed in HEK293 cells assessed as increase in intracellular calcium level by Fluo-4-AM dye based fluorescence assay relative to ionomycin
T6 sequence (Q8NER1 whole entry): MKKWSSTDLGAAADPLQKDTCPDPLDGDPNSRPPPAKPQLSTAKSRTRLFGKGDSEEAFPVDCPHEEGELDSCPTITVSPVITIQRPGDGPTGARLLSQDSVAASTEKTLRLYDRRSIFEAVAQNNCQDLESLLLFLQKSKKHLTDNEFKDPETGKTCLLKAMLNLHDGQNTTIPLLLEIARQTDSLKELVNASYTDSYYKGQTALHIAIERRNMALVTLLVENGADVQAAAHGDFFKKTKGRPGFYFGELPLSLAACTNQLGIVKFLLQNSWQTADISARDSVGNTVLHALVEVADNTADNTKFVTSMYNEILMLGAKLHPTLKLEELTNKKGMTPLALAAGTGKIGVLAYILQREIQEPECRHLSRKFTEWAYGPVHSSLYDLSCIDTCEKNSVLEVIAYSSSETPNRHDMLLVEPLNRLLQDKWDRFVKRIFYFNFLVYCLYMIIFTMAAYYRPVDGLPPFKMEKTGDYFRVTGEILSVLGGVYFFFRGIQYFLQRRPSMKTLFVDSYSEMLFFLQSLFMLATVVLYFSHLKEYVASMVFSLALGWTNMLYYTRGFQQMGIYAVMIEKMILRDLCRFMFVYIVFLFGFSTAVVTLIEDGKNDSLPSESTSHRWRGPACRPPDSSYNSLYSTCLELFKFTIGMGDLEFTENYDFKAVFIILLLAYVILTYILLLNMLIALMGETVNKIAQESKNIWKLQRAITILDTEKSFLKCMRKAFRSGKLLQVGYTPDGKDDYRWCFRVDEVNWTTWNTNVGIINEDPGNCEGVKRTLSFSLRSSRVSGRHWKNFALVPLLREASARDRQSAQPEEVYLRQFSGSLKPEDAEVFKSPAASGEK

[11] = biological target: T7, Transient receptor potential cation channel subfamily A member 1 (Rattus norvegicus, UniProt Q6RI86); experiment: Antagonist activity at rat TRPA1 expressed in HEK293 cells assessed as inhibition of AITC-induced increase in intracellular calcium level pretreated for 5 mins followed by AITC addition by fluo-4-AM dye based fluorescence assay
T7 sequence (Q6RI86 whole entry): as the sequence (Q6RI86 whole entry) above

[12] = biological target: T6, Transient receptor potential cation channel subfamily V member 1; experiment: Antagonist activity at human TRPV1 expressed in HEK293 cells assessed as inhibition of capsaicin-induced increase in intracellular calcium level pretreated for 5 mins followed by capsaicin addition by Fluo-4-AM dye based fluorescence assay
[13] = biological target: T5, Transient receptor potential cation channel subfamily V member 4; experiment: Agonist activity at rat TRPV4 expressed in HEK293 cells assessed as increase in intracellular calcium level by Fluo-4-AM dye based fluorescence assay
[14] = biological target: T6, Transient receptor potential cation channel subfamily V member 1; experiment: Agonist activity at human TRPV1 expressed in HEK293 cells assessed as increase in intracellular calcium level by Fluo-4-AM dye based fluorescence assay
[15] = biological target: Transient receptor potential cation channel subfamily V member 4 (Rattus norvegicus) (UniProt Q9ERZ8); experiment: Agonist activity at rat TRPV4 expressed in HEK293 cells assessed as increase in intracellular calcium level by Fluo-4-AM dye based fluorescence assay relative to ionomycin
Chain of Transient receptor potential cation channel subfamily V member 4 (Rattus norvegicus) (Q9ERZ8 whole entry): as the sequence (Q9ERZ8 whole entry) above

[16] = biological target: T7, Transient receptor potential cation channel subfamily A member 1; experiment: Agonist activity at rat TRPA1 expressed in HEK293 cells assessed as increase in intracellular calcium level by fluo-4-AM dye based fluorescence assay

Compound | IC50 [1] [µM] | EC50 ([2]; read-out: EC50) [µM] | Efficacy [3] [%] | Efficacy [4] [%] | EC50 ([5]; hek293) | IC50 [6] [µM] | IC50 [7] [µM] | Efficacy [8] [%] | IC50 [9] [µM] | Efficacy [10] [%] | IC50 [11] [µM] | IC50 [12] [µM] | EC50 ([13]; read-out: EC50) [µM] | EC50 ([14]; read-out: EC50) [µM] | Efficacy [15] [%] | EC50 [16] [µM] | EC50 ([13]; hek293) | EC50 ([14]; hek293) | EC50 ([2]; hek293) | EC50 ([5]; read-out: EC50) [µM]
CCCCCc1cc(O)c2c(c1)O[C@]1(C2)[C@@H](C)CCCC1(C)C | 13.7 | 4.7 | < 10 | 37.7 | Not Active | 4.3 | 12.8 | 108 | > 50 | 43.9 | 0.45 | 7.1 | 3.3 | 1.8 | 13.9 | 0.49 | – | – | – | –
CCCCCc1cc(O)c2c(c1)O[C@]1(C)CCCC(C)(C)[C@H]1C2 | > 100 | 8.4 | < 10 | 41.3 | Not Active | > 100 | > 50 | 95.2 | > 100 | < 10 | 0.26 | > 100 | – | – | < 10 | 0.23 | Not Active | Not Active | – | –
CCCCCc1cc(O)c2c(c1)OC(C)(CCCC(C)(C)c1ccc(C)cc1)CC2 (stereo unspecified) | 4.5 | – | < 10 | < 10 | Not Active | > 100 | > 50 | 120 | > 100 | < 10 | 0.32 | > 50 | 18 | – | 18 | 0.35 | – | Not Active | Not Active | –
CCCCCc1cc(O)c2c(c1)O[C@]1(C2)[C@H](C)CCCC1(C)C | > 50 | 6.4 | < 10 | 27.5 | Not Active | 39.7 | > 50 | 102 | > 50 | 32.3 | 1.7 | 37 | – | 4.9 | < 10 | 1.3 | Not Active | – | – | –
CCCCCc1cc(O)c2c(c1)O[C@]1(C)CC[C@@H](I)C(C)(C)[C@H]1C2 | 2.3 | – | < 10 | < 10 | Not Active | > 100 | > 50 | 90 | 7.2 | < 10 | 4.8 | > 100 | – | – | < 10 | 2 | Not Active | Not Active | Not Active | –
CCCCCc1cc(O)c2c(c1)O[C@@]1(C)CCCC(C)(C)[C@H]1C2 | > 100 | 5.8 | 17.5 | 31.7 | – | 3.9 | 8 | 98.5 | 17.1 | 48.5 | 0.27 | 5.9 | – | 2.6 | < 10 | 0.29 | Not Active | – | – | 6.7
